# Assay results from US12187723B2 (BRISTOL-MYERS SQUIBB COMPANY, priority 2019, dated 2025).
# Target: T1, human TLR8 (Homo sapiens, UniProt Q9NR97)
# T1 construct: host or cells: HEK-Blue cells
# T1 sequence (Q9NR97 27-1041): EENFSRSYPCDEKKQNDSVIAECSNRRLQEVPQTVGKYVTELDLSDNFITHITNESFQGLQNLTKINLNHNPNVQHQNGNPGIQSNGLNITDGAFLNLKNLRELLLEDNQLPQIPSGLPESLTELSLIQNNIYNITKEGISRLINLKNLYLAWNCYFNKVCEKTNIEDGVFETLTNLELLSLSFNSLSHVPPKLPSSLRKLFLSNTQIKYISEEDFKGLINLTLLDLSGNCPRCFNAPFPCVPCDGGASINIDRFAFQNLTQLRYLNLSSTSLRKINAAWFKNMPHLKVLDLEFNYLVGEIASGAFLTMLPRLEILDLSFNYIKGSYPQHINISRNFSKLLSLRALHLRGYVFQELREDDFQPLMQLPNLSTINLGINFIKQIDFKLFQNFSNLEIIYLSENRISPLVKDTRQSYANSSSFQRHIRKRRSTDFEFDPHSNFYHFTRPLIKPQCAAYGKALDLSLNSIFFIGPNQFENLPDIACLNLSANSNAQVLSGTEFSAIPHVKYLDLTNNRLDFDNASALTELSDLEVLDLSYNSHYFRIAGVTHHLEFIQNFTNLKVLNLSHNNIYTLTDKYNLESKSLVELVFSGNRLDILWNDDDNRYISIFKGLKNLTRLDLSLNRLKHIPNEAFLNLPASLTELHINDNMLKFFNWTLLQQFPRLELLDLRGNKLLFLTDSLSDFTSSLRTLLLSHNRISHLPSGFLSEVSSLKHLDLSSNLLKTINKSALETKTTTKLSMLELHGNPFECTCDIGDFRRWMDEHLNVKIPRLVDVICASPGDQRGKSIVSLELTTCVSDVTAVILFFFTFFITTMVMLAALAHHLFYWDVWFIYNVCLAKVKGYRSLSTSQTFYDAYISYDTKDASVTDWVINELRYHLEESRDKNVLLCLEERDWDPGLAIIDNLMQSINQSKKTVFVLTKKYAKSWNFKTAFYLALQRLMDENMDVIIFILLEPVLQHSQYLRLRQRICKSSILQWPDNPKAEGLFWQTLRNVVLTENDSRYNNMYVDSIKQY
# Test: TLR8 inhibition reporter assay (HEK-Blue SEAP)
# Type: cell-based
# Settings: HEK-Blue cells overexpressing human TLR8, R848 15.9 μM, 22 hour incubation
# Procedure, shortened: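 Dose–response from 0.05 nM to 50 μM was run in HEK-Blue human TLR7, TLR8 and TLR9 reporter cells. After 30 min at room temperature with compound, ligand was added (TLR7 gardiquimod 7.5 μM; TLR8 R848 15.9 μM; TLR9 ODN2006 5 nM) and SEAP measured next day, at 22 h.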
row,Structure (SMILES),IC50 [µM]
1,"COc1cc(-c2cc3[nH]c(=O)n(C4CCN(C)CC4)c3cc2C)cn2ncnc12 [Example 1, 5-(8-methoxy-[1,2,4]triazolo[1,5-a]pyridin-6-yl)-6-methyl-1-(1-methylpiperidin-4-yl)-1,3-dihydro-2H-benzo[d]imidazol-2-one]",0.0541
2,"Cc1cc2c(cc1-c1cc(C)c3ncnn3c1)[nH]c(=O)n2C1CCN(C(C)C)CC1 [Example 2, 1-(1-isopropylpiperidin-4-yl)-6-methyl-5-(8-methyl-[1,2,4]triazolo[1,5-a]pyridin-6-yl)-1,3-dihydro-2H-benzo[d]imidazol-2-one]",0.107
3,"Cc1cc2c(cc1-c1cc(C)c3ncnn3c1)[nH]c(=O)n2[C@H]1CC[C@@H](NCC(C)(C)C)CC1 [Example 32, 6-methyl-5-(8-methyl-[1,2,4]triazolo[1,5-a]pyridin-6-yl)-1-((1s,4s)-4-(neopentylamino)cyclohexyl)-1,3-dihydro-2H-benzo[d]imidazol-2-one]",0.00061
4,"CCC(C)N[C@H]1CC[C@@H](n2c(=O)[nH]c3cc(-c4cc(C)c5ncnn5c4)c(C)cc32)CC1 (stereo partly drawn) [Example 34, 1-((1s,4s)-4-(sec-butylamino)cyclohexyl)-6-methyl-5-(8-methyl-[1,2,4]triazolo[1,5-a]pyridin-6-yl)-1,3-dihydro-2H-benzo[d]imidazol-2-one]",0.00465
5,"Cc1cc2c(cc1-c1cc(C)c3ncnn3c1)[nH]c(=O)n2[C@@H]1CCCN(Cc2ncn(C)n2)C1 [Example 35, (R)-6-methyl-1-(1-((1-methyl-1H-1,2,4-triazol-3-yl)methyl)piperidin-3-yl)-5-(8-methyl-[1,2,4]triazolo[1,5-a]pyridin-6-yl)-1,3-dihydro-2H-benzo[d]imidazol-2-one]",0.22
6,"COc1ncc(CN2CCC[C@H](n3c(=O)[nH]c4cc(-c5cc(C)c6ncnn6c5)c(C)cc43)C2)cn1 [Example 36, (S)-1-(1-((2-methoxypyrimidin-5-yl)methyl)piperidin-3-yl)-6-methyl-5-(8-methyl-[1,2,4]triazolo[1,5-a]pyridin-6-yl)-1,3-dihydro-2H-benzo[d]imidazol-2-one]",0.0375
7,"Cc1cc2c(cc1-c1cc(C)c3ncnn3c1)[nH]c(=O)n2[C@@H]1CCCN(CCCC(F)(F)F)C1 [Example 39, (R)-6-methyl-5-(8-methyl-[1,2,4]triazolo[1,5-a]pyridin-6-yl)-1-(1-(4,4,4-trifluorobutyl)piperidin-3-yl)-1,3-dihydro-2H-benzo[d]imidazol-2-one]",0.0493
8,"Cc1cc2c(cc1-c1cc(C)c3ncnn3c1)[nH]c(=O)n2[C@@H]1CCCN(CC(C)C)C1 [Example 40, (R)-1-(1-isobutylpiperidin-3-yl)-6-methyl-5-(8-methyl-[1,2,4]triazolo[1,5-a]pyridin-6-yl)-1,3-dihydro-2H-benzo[d]imidazol-2-one]",0.0196
9,"Cc1cc2c(cc1-c1cc(C)c3ncnn3c1)[nH]c(=O)n2[C@@H]1CCCN(CC2CCOCC2)C1 [Example 41, (R)-6-methyl-5-(8-methyl-[1,2,4]triazolo[1,5-a]pyridin-6-yl)-1-(1-((tetrahydro-2H-pyran-4-yl)methyl)piperidin-3-yl)-1,3-dihydro-2H-benzo[d]imidazol-2-one]",0.0271
10,"Cc1cc2c(cc1-c1cc(C)c3ncnn3c1)[nH]c(=O)n2[C@@H]1CCCN(CC2CCOC2)C1 (stereo partly drawn) [Example 43, 6-methyl-5-(8-methyl-[1,2,4]triazolo[1,5-a]pyridin-6-yl)-1-((3R)-1-((tetrahydrofuran-3-yl)methyl)piperidin-3-yl)-1,3-dihydro-2H-benzo[d]imidazol-2-one]",0.0577
11,"Cc1cc2c(cc1-c1cc(C)c3ncnn3c1)[nH]c(=O)n2[C@@H]1CCCN(CC2CCCC2)C1 [Example 47, (R)-1-(1-(cyclopentylmethyl)piperidin-3-yl)-6-methyl-5-(8-methyl-[1,2,4]triazolo[1,5-a]pyridin-6-yl)-1,3-dihydro-2H-benzo[d]imidazol-2-one]",0.0328
12,"CCN1CCC[C@@H](n2c(=O)[nH]c3cc(-c4cc(OC)c5ncnn5c4)c(C)cc32)C1 [Example 52, (R)-1-(1-ethylpiperidin-3-yl)-5-(8-methoxy-[1,2,4]triazolo[1,5-a]pyridin-6-yl)-6-methyl-1,3-dihydro-2H-benzo[d]imidazol-2-one]",0.0257
13,"COc1cc(-c2cc3[nH]c(=O)n([C@@H]4CCCN(C(C)C)C4)c3cc2C)cn2ncnc12 [Example 53, (R)-1-(1-isopropylpiperidin-3-yl)-5-(8-methoxy-[1,2,4]triazolo[1,5-a]pyridin-6-yl)-6-methyl-1,3-dihydro-2H-benzo[d]imidazol-2-one]",0.0359
14,"CCCN1CCC[C@@H](n2c(=O)[nH]c3cc(-c4cc(OC)c5ncnn5c4)c(C)cc32)C1 [Example 54, (R)-5-(8-methoxy-[1,2,4]triazolo[1,5-a]pyridin-6-yl)-6-methyl-1-(1-propylpiperidin-3-yl)-1,3-dihydro-2H-benzo[d]imidazol-2-one]",0.024

# More lines, in order of falling IC50, values ahead:
row,IC50 [µM],Structure (SMILES)
1,0.049,"Cc1cc2c(cc1-c1cc(C)c3ncnn3c1)[nH]c(=O)n2[C@@H]1CCCN(CCC(C)(C)C)C1 [Example 44, (R)-1-(1-(3,3-dimethylbutyl)piperidin-3-yl)-6-methyl-5-(8-methyl-[1,2,4]triazolo[1,5-a]pyridin-6-yl)-1,3-dihydro-2H-benzo[d]imidazol-2-one]"
2,0.0481,"CCC(CC)CN1CCC[C@@H](n2c(=O)[nH]c3cc(-c4cc(C)c5ncnn5c4)c(C)cc32)C1 [Example 45, (R)-1-(1-(2-ethylbutyl)piperidin-3-yl)-6-methyl-5-(8-methyl-[1,2,4]triazolo[1,5-a]pyridin-6-yl)-1,3-dihydro-2H-benzo[d]imidazol-2-one]"
3,0.0424,"Cc1cc2c(cc1-c1cc(C)c3ncnn3c1)[nH]c(=O)n2[C@@H]1CCCN(Cc2cccnc2)C1 [Example 46, (R)-6-methyl-5-(8-methyl-[1,2,4]triazolo[1,5-a]pyridin-6-yl)-1-(1-(pyridin-3-ylmethyl)piperidin-3-yl)-1,3-dihydro-2H-benzo[d]imidazol-2-one]"
4,0.0295,"CCCN1CCC[C@@H](n2c(=O)[nH]c3cc(-c4cc(C)c5ncnn5c4)c(C)cc32)C1 [Example 42, (R)-6-methyl-5-(8-methyl-[1,2,4]triazolo[1,5-a]pyridin-6-yl)-1-(1-propylpiperidin-3-yl)-1,3-dihydro-2H-benzo[d]imidazol-2-one]"
5,0.0287,"Cc1cc2c(cc1-c1cc(C)c3ncnn3c1)[nH]c(=O)n2[C@@H]1CCCN(CC2CC2)C1 [Example 37, (R)-1-(1-(cyclopropylmethyl)piperidin-3-yl)-6-methyl-5-(8-methyl-[1,2,4]triazolo[1,5-a]pyridin-6-yl)-1,3-dihydro-2H-benzo[d]imidazol-2-one]"
6,0.021,"COc1cc(-c2cc3[nH]c(=O)n([C@@H]4CCCN(C)C4)c3cc2C)cn2ncnc12 [Example 51, (R)-5-(8-methoxy-[1,2,4]triazolo[1,5-a]pyridin-6-yl)-6-methyl-1-(1-methylpiperidin-3-yl)-1,3-dihydro-2H-benzo[d]imidazol-2-one]"
7,0.0109,"Cc1cc2c(cc1-c1cc(C)c3ncnn3c1)[nH]c(=O)n2[C@H]1CC[C@@H](NCc2ncn(C)n2)CC1 [Example 33, 6-methyl-1-((1s,4s)-4-(((1-methyl-1H-1,2,4-triazol-3-yl)methyl)amino)cyclohexyl)-5-(8-methyl-[1,2,4]triazolo[1,5-a]pyridin-6-yl)-1,3-dihydro-2H-benzo[d]imidazol-2-one]"
8,0.00533,"COc1cc(-c2cc3[nH]c(=O)n([C@H]4CC[C@@H](N(C)C)CC4)c3cc2C)cn2ncnc12 [Example 48, 1-((1s,4s)-4-(dimethylamino)cyclohexyl)-5-(8-methoxy-[1,2,4]triazolo[1,5-a]pyridin-6-yl)-6-methyl-1,3-dihydro-2H-benzo[d]imidazol-2-one]"
9,0.00486,"COc1cc(-c2cc3[nH]c(=O)n([C@H]4CC[C@@H](NC(C)C)CC4)c3cc2C)cn2ncnc12 [Example 50, 1-((1s,4s)-4-(isopropylamino)cyclohexyl)-5-(8-methoxy-[1,2,4]triazolo[1,5-a]pyridin-6-yl)-6-methyl-1,3-dihydro-2H-benzo[d]imidazol-2-one]"
10,0.00326,"COc1cc(-c2cc3[nH]c(=O)n([C@H]4CC[C@@H](NC5CCOCC5)CC4)c3cc2C)cn2ncnc12 [Example 49, 5-(8-methoxy-[1,2,4]triazolo[1,5-a]pyridin-6-yl)-6-methyl-1-((1s,4s)-4-((tetrahydro-2H-pyran-4-yl)amino)cyclohexyl)-1,3-dihydro-2H-benzo[d]imidazol-2-one]"
